Measurements reported in patent US6380181B1, “Synthetic catechol derivatives, method for production and use thereof” (priority 1996, dated 2002).
Converted amounts (≈) assume the structure as drawn.

Experiments:
Format in all cases: cell-based
[1] = system: Pseudomonas aeruginosa K 407; details: Pseudomonas aeruginosa K407
Text: (§1) In the indicator mutants, the synthesis of the respective siderophores, e.g. pyoverdin, pyochelin, enterobactin, aerobactin or yersiniabactin, or the biosynthesis of aromatic compounds, is blocked, or there is a lack of receptors for enterobactin, pyochelin or pyoverdin and for other important components for the bacterial transport of iron (e.g. the membrane proteins Cir, Fiu, FepA and TonB). Under conditions where there is a lack of iron, these mutants therefore cannot grow or can only grow to a very slight extent. In particular, the following indicator mutants were used: Pseudomonas aeruginosa PAO 6609, K 407, 690; E. coli AB 2847, Salmonella typhimurium enb-7, TA 270; Klebsiella pneumoniae KN 4401; Yersinia enterocolitica WAH; Proteus mirabilis 12 (wild); Proteus vulgaris 718 (wild) and Morganella morganii SBK3 (wild). […] The controls used were ferrioxamine E for the Pseudomonas strains, ferrioxamine G and enterobactin for the Salmonella strains, ferrichrome for the E. coli, Klebsiella and Y. enterocol. strains, and 3,4-dihydroxybenzylidene-2,4,6-trimethylaniline for Morganella morganii (see the above literature reference by R. Reissbrodt et al.).
(§2) The annotations + and (+) relate to non-specific promotion of growth.

[2] = system: Pseudomonas aeruginosa 690
Text: as §1, §2

[3] = system: Pseudomonas aeruginosa PAO 6609
Text: as §1, §2

[4] = system: Klebsiella pneumoniae KN 4401; details: Klebsiella KN 4401
Text: as §1, §2

[5] = system: Proteus vulgaris 718 (wild)
Text: as §1, §2

[6] = system: Yersinia enterocolitica WAH; details: Y. enterocol. WAH
Text: as §1, §2

E. coli AB 2847 = system: E. coli AB 2847
Text: as §1, §2

[7] = system: Morganella morganii SBK3 (wild)
Text: as §1, §2

[8] = system: Salmonella typhimurium enb-7
Text: as §1, §2

[9] = system: Salmonella typhimurium TA 2700
Text: as §1, §2

[10] = system: Proteus mirabilis 12 (wild)
Text: as §1, §2

[11] = system: Pseudomonas aeruginosa NCTC 10701; test: Microdilution test (MIC); details: P. aeruginosa NCTC 10701
Description: (§3) The minimum inhibiting concentrations (MICs) were determined for the following bacterial strains: Pseudomonas aeruginosa NCTC 10701, NCTC 10662, SG 137, ATCC 27853, KW 799 WT and KW 799/61, E. coli DCO, DC2 and ATCC 25922, Serratia marcescens SG 621; Salmonella gallinarum ATCC 9184, Klebsiella pneumoniae ATCC 10031 and SG 117.

[12] = system: Pseudomonas aeruginosa SG 137; test: Microdilution test (MIC); details: P. aeruginosa SG 137
Description: as §3

[13] = system: Serratia marcescens SG 621; test: Microdilution test (MIC)
Description: as §3

[14] = system: Klebsiella pneumoniae SG 117; test: Microdilution test (MIC)
Description: as §3

[15] = system: Pseudomonas aeruginosa NPS1 (plasmid-coded β-lactamase); details: concentration 100 μg/ml; P. aeruginosa NPS 1
E. coli DC2 = test: microbe, parasite or virus in culture
Description: as §3
(§4) With the test germs KW 799/WT and /61 of Pseudomonas and DCO and DC2 of E. coli, the effect of improved penetration capacity on the efficacy of the substances was investigated.

[16] = system: Pseudomonas aeruginosa NCTC 10662; test: Agar diffusion test; details: concentration 100 μg/ml; P. aeruginosa NCTC 10662
[17] = system: Klebsiella pneumoniae SG 117; test: Agar diffusion test; details: concentration 100 μg/ml
[18] = system: Pseudomonas aeruginosa Oxa6 (plasmid-coded β-lactamase); details: concentration 100 μg/ml; P. aeruginosa OXA 6
E. coli mutant KB5 ompC− = system: E. coli mutant KB5 ompC−
Text: (§5) The efficacy against β-lactamase formers and against multi-resistant germs is therefore due to a new type of mechanism for overcoming the penetration resistance, by means of which the ratio of active ingredient to enzyme in the bacterial cell is influenced so that not all antibiotic molecules are inactivated before they reach their target.

E. coli mutant KB4 ompF− = system: E. coli mutant KB4 ompF−
Text: as §5

[19] = system: E. coli mutant BR185 tonB−
E. coli AB2847 tonB+ = system: E. coli AB2847 tonB+
[20] = system: E. coli mutant PLB3268 ompF++; details: E. coli mutant PLB3268 ompF++ (ompF super-expressed)
Text: as §5
PLB268: ompF- was super-expressed.

E. coli DC0 (wild type) = test: Agar diffusion test; details: concentration 100 μg/ml
[21] = system: Pseudomonas aeruginosa KW 799 WT (wild type); test: Agar diffusion test; details: concentration 100 μg/ml; P. aeruginosa KW799/WT
[22] = system: Pseudomonas aeruginosa ATCC 9027 (wild type); test: Agar diffusion test; details: concentration 100 μg/ml; P. aeruginosa ATCC 9027
[23] = system: Stenotrophomonas maltophilia GN 12873; test: Agar diffusion test; details: concentration 100 μg/ml
[24] = system: E. coli DC2 (penetration mutant); details: concentration 100 μg/ml
[25] = system: Pseudomonas aeruginosa KW 799 WT; test: Microdilution test (MIC); details: P. aeruginosa KW 799/WT
Description: as §3, §4

[26] = system: Pseudomonas aeruginosa KW 799/61; test: Microdilution test (MIC)
Description: as §3, §4

[27] = system: Stenotrophomonas maltophilia IMET 10402; test: Agar diffusion test; details: concentration 100 μg/ml
[28] = system: Pseudomonas aeruginosa SG 137 (carbenicillin-resistant); test: Agar diffusion test; details: concentration 100 μg/ml; P. aeruginosa SG 137
[29] = system: Salmonella gallinarum ATCC 9184; test: microbe, parasite or virus in culture; details: Salmonella gallinarum ATCC9184
Description: as §3

[30] = system: Pseudomonas aeruginosa KW 799/61 (penetration mutant); details: concentration 100 μg/ml; P. aeruginosa KW799/61
[31] = system: Pseudomonas aeruginosa NCTC 10662; test: Microdilution test (MIC); details: P. aeruginosa NCTC 10662
Description: as §3

E. coli ATCC 25922 = test: Microdilution test (MIC)
Description: as §3

[32] = system: Klebsiella pneumoniae ATCC 10031; test: Microdilution test (MIC)
Description: as §3

[33] = system: Stenotrophomonas maltophilia GN 12873; test: Microdilution test (MIC)
[34] = system: Pseudomonas aeruginosa NCTC 10701; test: Agar diffusion test; details: concentration 100 μg/ml; P. aeruginosa NCTC 10701
E. coli DC0 = test: Microdilution test (MIC); details: E. coli DC0
Description: as §3, §4

[35] = system: Salmonella gallinarum ATCC 9184; details: concentration 100 μg/ml; Salmonella galinarum ATCC 9184

| SMILES | Growth areas of siderophore indicator strains (diameter) [1] [mm] | Growth areas of siderophore indicator strains (diameter) [2] [mm] | Growth areas of siderophore indicator strains (diameter) [3] [mm] | Growth areas of siderophore indicator strains (diameter) [4] [mm] | Growth areas of siderophore indicator strains (diameter) [5] [mm] | Growth areas of siderophore indicator strains (diameter) [6] [mm] | Growth areas of siderophore indicator strains (diameter) (E. coli AB 2847) [mm] | Growth areas of siderophore indicator strains (diameter) [7] [mm] | Growth areas of siderophore indicator strains (diameter) [8] [mm] | Growth areas of siderophore indicator strains (diameter) [9] [mm] | Growth areas of siderophore indicator strains (diameter) [10] [mm] | MIC values, microdilution test [12] [µg/mL] | MIC values, microdilution test [13] [µg/mL] | inhibition spot diameter in the agar diffusion test [15] [mm] | MIC values, microdilution test (E. coli DC2) [µg/mL] | inhibition spot diameter in the agar diffusion test [17] [mm] | inhibition spot diameter in the agar diffusion test [18] [mm] | inhibition spot diameter in agar diffusion test (E. coli mutant KB5 ompC−) [mm] | inhibition spot diameter in agar diffusion test (E. coli mutant KB4 ompF−) [mm] | inhibition spot diameter in agar diffusion test [19] [mm] | further results |
| --- | --- | --- | --- | --- | --- | --- | --- | --- | --- | --- | --- | --- | --- | --- | --- | --- | --- | --- | --- | --- | --- |
| O=C(O)c1ccc(O)c(N=Cc2cccc(O)c2O)c1 [Substance 3] | 0 | 0 | 0 | 32 | 18 | 0 | 22 | 20 | 28 | 0 | 18 |  |  |  |  |  |  |  |  |  |  |
| O=C(O)c1ccc(N=Cc2cccc(O)c2O)c(O)c1 [Substance 5] | 0 | 0 | 0 | 0 | 21 | 0 | 15 | 21 | 0 | 0 | 19 |  |  |  |  |  |  |  |  |  |  |
| O=C(O)c1cc(O)c(O)c(C=NNC(=O)c2cccc(O)c2O)c1 [Substance 13, 3-formyl-4,5-dihydroxybenzoic Acid-(2,3-dihydroxy-benzhydrazone)] | 11 | 10 | 10 | 15 | 23 | 10 |  | 24 | 18 | 23 | 23 |  |  |  |  |  |  |  |  |  |  |
| CC(=O)Oc1cccc(C(=O)Nc2ccccc2C(=O)N[C@@H](C(=O)N[C@@H]2C(=O)N3[C@@H]2SC(C)(C)[C@@H]3C(=O)O)c2ccccc2)c1OC(C)=O [Substance 28, N-[2-(2,3-Diacetoxybenzoylamino)-benzoyl]-ampicillin] |  |  |  |  |  |  |  |  |  |  |  | 1.56 (≈ 2.27 µM) | 6.25 (≈ 9.07 µM) | 18 | 0.4 (≈ 0.581 µM) | 17 | 19 | 11 | 11.5 | 0 | MIC values, microdilution test [11]: 0.78 µg/mL (≈ 1.13 µM); MIC values, microdilution test [14]: 25 µg/mL (≈ 36.3 µM); inhibition spot diameter in the agar diffusion test [16]: 17 mm; inhibition spot diameter in agar diffusion test (E. coli AB2847 tonB+): 8.5 mm; inhibition spot diameter in agar diffusion test [20]: 13 mm; inhibition spot diameter in the agar diffusion test (E. coli DC0 (wild type)): 23 mm; inhibition spot diameter in the agar diffusion test [21]: 27 mm; inhibition spot diameter in the agar diffusion test [22]: 18 mm; inhibition spot diameter in the agar diffusion test [23]: 20 mm; inhibition spot diameter in the agar diffusion test [24]: 27 mm; MIC values, microdilution test [25]: 1.56 µg/mL (≈ 2.27 µM); MIC values, microdilution test [26]: 0.4 µg/mL (≈ 0.581 µM); inhibition spot diameter in the agar diffusion test [27]: 24 mm; inhibition spot diameter in the agar diffusion test [28]: 20 mm; MIC values, microdilution test [29]: 1.56 µg/mL (≈ 2.27 µM); inhibition spot diameter in the agar diffusion test [30]: 31 mm |
| CC(=O)Oc1cccc(C(=O)Nc2ccc(C(=O)N[C@@H](C(=O)N[C@@H]3C(=O)N4[C@@H]3SC(C)(C)[C@@H]4C(=O)O)c3ccccc3)cc2)c1OC(C)=O [Substance 29] |  |  |  |  |  |  |  |  |  |  |  | 0.78 (≈ 1.13 µM) | 25 (≈ 36.3 µM) | 12 | 1.56 (≈ 2.27 µM) | 15 | 13 | 7 | 9.5 | 0 | MIC values, microdilution test [31]: 12.5 µg/mL (≈ 18.1 µM); MIC values, microdilution test (E. coli ATCC 25922): 100 µg/mL (≈ 145 µM); MIC values, microdilution test [32]: 50 µg/mL (≈ 72.6 µM); MIC values, microdilution test [33]: 12.5 µg/mL (≈ 18.1 µM); inhibition spot diameter in agar diffusion test (E. coli AB2847 tonB+): 6 mm; inhibition spot diameter in agar diffusion test [20]: 14 mm; inhibition spot diameter in the agar diffusion test (E. coli DC0 (wild type)): 22 mm; inhibition spot diameter in the agar diffusion test [34]: 23 mm; inhibition spot diameter in the agar diffusion test [21]: 27 mm; inhibition spot diameter in the agar diffusion test [22]: 21 mm; inhibition spot diameter in the agar diffusion test [23]: 19 mm; inhibition spot diameter in the agar diffusion test [24]: 28 mm; MIC values, microdilution test (E. coli DC0): 50 µg/mL (≈ 72.6 µM); MIC values, microdilution test [25]: 3.12 µg/mL (≈ 4.53 µM); MIC values, microdilution test [26]: 0.4 µg/mL (≈ 0.581 µM); inhibition spot diameter in the agar diffusion test [35]: 22 mm; inhibition spot diameter in the agar diffusion test [27]: 23 mm; inhibition spot diameter in the agar diffusion test [28]: 28 mm; inhibition spot diameter in the agar diffusion test [30]: 33 mm |
